Results taken from publication PMC9329436, “Optimization of the 4-anilinoquin(az)oline scaffold as epidermal growth factor receptor (EGFR) inhibitors for chordoma utilizing a toxicology profiling assay platform” (Scientific Reports, 2022).
Like-named read-outs stand apart in the source and are kept apart here.

Assays:
Assay type in all cases: biochemical
[1] = target: 320 wild-type protein kinases (Homo sapiens, UniProt Q13164); settings: singlicate
Excerpt: (§1) Table S4. Profiling of two compounds at two concentrations against 320 wild-type protein kinases; singlicate measurement; Residual activities (% of control).

[2] = target: 320 wild-type protein kinases (Homo sapiens, UniProt P23443); settings: kinase S6K, singlicate
Sequence of 320 wild-type protein kinases (Homo sapiens, UniProt P23443) (P23443 whole entry): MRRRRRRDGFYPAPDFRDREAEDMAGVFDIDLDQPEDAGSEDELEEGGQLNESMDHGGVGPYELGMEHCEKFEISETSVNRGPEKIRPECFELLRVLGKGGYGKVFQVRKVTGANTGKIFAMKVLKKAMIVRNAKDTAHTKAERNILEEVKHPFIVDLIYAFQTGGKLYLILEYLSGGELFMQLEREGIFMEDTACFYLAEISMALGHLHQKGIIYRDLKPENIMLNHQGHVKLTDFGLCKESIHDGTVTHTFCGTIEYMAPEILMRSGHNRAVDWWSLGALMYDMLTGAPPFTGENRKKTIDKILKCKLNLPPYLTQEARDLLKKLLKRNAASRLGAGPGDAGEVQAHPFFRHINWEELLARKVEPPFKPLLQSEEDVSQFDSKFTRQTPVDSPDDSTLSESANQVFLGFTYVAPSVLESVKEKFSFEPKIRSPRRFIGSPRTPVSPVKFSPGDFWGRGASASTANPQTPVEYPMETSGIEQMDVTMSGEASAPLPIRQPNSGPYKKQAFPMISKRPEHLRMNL
Excerpt: as §1

[3] = target: T1, 320 wild-type protein kinases (Homo sapiens, UniProt Q32MK0); settings: singlicate
T1 sequence (Q32MK0 1-819): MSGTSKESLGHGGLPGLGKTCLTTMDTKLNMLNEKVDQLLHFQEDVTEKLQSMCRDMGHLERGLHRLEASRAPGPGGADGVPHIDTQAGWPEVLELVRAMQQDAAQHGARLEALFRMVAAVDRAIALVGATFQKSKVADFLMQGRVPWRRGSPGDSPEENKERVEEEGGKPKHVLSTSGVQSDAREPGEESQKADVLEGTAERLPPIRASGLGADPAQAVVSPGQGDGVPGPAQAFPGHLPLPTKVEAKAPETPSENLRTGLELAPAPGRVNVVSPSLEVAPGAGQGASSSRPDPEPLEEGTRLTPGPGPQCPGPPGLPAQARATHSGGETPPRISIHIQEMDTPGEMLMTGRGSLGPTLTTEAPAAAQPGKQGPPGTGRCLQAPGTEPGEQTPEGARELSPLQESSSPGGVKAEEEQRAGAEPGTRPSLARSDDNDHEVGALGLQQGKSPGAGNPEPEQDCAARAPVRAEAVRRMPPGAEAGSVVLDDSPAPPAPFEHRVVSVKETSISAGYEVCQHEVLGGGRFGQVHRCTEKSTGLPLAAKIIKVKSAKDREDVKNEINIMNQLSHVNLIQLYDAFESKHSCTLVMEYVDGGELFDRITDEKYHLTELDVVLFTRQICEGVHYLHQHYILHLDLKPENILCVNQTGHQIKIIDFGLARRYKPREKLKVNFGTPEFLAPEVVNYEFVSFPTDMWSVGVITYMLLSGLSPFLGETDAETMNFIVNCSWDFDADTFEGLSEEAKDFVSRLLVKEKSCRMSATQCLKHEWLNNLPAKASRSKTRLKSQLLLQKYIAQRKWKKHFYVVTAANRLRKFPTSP
Excerpt: as §1

[4] = target: T2, 320 wild-type protein kinases (Homo sapiens, UniProt Q13976); settings: kinase PRKG1, singlicate
T2 sequence (Q13976 1-671): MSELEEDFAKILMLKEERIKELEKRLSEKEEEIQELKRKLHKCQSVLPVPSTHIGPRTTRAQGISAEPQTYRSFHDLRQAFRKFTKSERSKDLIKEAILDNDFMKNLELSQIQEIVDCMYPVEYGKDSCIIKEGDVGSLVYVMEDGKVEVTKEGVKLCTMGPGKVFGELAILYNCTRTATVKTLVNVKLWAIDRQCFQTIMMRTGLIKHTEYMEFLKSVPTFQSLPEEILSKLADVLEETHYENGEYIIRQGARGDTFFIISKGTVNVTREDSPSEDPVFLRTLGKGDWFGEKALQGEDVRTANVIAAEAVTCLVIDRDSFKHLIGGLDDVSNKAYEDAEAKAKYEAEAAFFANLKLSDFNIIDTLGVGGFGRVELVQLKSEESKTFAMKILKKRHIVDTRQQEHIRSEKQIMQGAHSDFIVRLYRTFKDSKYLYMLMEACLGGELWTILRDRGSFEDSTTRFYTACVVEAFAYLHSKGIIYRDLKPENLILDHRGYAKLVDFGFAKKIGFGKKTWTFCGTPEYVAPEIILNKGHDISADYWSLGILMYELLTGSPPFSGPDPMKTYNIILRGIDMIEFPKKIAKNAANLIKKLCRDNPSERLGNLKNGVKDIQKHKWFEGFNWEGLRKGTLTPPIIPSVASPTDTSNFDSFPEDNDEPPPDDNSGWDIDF
Excerpt: as §1

[5] = target: 320 wild-type protein kinases (Homo sapiens, UniProt Q96RR4); settings: singlicate
Sequence of 320 wild-type protein kinases (Homo sapiens, UniProt Q96RR4) (Q96RR4 whole entry): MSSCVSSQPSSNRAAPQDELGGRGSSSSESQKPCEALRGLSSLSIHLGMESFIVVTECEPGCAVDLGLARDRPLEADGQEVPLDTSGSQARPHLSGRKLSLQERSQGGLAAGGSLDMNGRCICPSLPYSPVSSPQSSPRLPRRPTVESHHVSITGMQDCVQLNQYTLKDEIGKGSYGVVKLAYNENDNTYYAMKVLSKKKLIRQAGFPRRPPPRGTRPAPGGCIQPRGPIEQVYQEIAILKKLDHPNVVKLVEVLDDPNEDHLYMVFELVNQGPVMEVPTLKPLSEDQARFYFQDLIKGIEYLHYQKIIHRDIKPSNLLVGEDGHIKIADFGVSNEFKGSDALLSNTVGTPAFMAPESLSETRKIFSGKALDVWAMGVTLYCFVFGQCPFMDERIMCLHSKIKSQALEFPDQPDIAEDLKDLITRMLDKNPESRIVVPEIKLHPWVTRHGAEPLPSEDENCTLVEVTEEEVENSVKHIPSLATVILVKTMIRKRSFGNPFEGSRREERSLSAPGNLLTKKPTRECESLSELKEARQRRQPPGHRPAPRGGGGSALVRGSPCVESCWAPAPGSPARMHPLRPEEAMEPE
Excerpt: as §1

[6] = target: T3, 320 wild-type protein kinases (Homo sapiens, UniProt P51813); settings: BMX, singlicate
T3 sequence (P51813 1-675): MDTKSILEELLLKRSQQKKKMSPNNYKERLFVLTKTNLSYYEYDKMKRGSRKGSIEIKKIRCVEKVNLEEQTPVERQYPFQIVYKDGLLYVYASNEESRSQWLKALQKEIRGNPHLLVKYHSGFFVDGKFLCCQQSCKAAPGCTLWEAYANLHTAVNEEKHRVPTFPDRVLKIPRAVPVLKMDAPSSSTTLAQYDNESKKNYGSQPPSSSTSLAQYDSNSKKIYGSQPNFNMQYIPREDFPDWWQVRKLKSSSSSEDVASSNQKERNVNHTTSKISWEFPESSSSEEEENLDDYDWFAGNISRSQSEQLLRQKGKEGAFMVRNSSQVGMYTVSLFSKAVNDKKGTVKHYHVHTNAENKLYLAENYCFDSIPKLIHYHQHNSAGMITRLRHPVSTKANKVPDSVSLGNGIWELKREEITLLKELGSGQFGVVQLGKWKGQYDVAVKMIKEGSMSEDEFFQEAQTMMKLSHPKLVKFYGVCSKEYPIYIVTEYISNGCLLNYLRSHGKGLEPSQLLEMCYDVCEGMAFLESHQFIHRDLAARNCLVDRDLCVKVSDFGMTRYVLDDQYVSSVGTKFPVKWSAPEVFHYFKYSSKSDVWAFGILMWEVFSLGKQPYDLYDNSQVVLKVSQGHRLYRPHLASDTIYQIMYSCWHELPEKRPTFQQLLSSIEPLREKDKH
Excerpt: as §1

[7] = target: 320 wild-type protein kinases (Homo sapiens, UniProt Q6IQ55); settings: kinase TTBK2, singlicate
Sequence of 320 wild-type protein kinases (Homo sapiens, UniProt Q6IQ55) (Q6IQ55 whole entry): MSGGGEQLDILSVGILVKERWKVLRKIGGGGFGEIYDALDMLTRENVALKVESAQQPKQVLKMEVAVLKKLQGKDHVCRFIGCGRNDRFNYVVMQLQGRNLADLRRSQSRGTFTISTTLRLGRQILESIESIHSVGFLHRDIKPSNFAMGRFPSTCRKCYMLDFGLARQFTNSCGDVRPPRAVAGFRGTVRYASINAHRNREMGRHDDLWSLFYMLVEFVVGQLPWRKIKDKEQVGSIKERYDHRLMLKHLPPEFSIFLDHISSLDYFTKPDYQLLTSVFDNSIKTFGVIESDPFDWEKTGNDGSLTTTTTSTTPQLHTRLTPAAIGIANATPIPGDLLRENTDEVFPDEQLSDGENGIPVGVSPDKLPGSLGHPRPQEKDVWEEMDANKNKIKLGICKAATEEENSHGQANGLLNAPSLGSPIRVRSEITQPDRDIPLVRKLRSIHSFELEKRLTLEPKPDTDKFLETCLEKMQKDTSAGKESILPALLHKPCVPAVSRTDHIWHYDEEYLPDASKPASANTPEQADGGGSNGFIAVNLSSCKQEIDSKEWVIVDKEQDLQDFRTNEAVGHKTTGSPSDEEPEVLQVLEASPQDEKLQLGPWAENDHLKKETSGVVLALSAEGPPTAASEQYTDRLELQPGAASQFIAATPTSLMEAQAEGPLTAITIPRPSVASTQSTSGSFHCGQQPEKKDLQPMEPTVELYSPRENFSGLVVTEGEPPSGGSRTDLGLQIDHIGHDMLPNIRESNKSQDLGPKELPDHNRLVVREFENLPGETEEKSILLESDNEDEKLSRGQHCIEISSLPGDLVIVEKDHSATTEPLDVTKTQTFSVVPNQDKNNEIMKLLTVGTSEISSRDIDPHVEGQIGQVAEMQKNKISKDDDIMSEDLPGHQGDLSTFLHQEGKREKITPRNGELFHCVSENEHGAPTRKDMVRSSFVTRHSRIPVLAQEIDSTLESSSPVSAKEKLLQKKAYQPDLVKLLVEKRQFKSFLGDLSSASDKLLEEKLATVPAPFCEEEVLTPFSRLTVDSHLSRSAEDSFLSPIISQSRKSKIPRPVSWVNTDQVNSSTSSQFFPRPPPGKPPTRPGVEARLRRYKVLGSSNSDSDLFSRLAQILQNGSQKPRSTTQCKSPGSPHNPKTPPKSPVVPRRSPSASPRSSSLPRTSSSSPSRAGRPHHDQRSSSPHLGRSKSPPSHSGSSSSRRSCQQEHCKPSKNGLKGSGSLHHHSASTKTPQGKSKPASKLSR
Excerpt: as §1

[8] = target: 320 wild-type protein kinases (Homo sapiens, UniProt O75676); settings: kinase RPS6KA4, singlicate
Sequence of 320 wild-type protein kinases (Homo sapiens, UniProt O75676) (O75676 whole entry): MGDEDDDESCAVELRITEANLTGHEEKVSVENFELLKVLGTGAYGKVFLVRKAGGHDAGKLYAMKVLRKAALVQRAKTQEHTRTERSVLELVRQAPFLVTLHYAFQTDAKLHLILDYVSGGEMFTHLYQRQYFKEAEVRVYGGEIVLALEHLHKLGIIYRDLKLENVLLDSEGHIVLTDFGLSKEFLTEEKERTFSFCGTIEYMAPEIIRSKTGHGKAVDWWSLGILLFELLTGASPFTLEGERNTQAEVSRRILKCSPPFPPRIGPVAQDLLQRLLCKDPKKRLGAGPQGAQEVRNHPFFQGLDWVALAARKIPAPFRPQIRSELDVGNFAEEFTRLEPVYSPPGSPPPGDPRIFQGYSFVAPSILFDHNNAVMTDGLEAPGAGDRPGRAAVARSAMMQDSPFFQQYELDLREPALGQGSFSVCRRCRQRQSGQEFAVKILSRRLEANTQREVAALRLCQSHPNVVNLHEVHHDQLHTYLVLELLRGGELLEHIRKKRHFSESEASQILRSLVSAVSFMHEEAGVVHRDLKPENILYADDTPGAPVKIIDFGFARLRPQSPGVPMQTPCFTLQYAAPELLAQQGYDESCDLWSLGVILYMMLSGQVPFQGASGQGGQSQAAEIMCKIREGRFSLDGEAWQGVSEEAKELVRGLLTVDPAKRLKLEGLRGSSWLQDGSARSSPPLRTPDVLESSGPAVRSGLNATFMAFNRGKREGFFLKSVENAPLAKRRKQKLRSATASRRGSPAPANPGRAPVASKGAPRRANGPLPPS
Excerpt: as §1

[9] = target: 320 wild-type protein kinases (Homo sapiens, UniProt P29317); settings: singlicate
Sequence of 320 wild-type protein kinases (Homo sapiens, UniProt P29317) (P29317 24-976): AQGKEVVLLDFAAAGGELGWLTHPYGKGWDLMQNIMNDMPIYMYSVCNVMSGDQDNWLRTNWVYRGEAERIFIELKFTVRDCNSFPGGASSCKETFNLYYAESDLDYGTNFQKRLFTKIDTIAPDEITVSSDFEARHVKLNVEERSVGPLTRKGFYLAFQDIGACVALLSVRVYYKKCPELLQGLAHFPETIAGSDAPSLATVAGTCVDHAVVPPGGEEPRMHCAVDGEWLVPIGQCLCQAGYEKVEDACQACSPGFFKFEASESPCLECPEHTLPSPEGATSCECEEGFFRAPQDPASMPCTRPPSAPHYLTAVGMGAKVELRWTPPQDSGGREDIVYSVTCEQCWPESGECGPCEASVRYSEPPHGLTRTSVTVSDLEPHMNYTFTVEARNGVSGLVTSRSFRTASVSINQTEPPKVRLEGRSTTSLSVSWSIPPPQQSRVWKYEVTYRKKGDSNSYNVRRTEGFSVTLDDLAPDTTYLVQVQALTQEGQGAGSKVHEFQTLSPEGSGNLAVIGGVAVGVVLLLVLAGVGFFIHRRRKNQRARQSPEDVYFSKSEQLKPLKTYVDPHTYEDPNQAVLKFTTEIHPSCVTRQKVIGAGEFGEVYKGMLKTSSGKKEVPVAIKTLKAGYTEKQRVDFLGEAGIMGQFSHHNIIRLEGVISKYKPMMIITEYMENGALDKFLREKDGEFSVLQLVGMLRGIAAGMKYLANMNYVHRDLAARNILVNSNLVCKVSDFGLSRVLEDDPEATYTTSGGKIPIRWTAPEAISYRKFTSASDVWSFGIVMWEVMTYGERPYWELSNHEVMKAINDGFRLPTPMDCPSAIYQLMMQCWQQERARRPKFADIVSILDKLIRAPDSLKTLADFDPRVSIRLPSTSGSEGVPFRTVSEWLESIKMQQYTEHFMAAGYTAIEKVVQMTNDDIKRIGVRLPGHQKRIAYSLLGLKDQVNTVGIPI
Excerpt: as §1

Sequence of 320 wild-type protein kinases (Homo sapiens, UniProt Q13164) (Q13164 whole entry): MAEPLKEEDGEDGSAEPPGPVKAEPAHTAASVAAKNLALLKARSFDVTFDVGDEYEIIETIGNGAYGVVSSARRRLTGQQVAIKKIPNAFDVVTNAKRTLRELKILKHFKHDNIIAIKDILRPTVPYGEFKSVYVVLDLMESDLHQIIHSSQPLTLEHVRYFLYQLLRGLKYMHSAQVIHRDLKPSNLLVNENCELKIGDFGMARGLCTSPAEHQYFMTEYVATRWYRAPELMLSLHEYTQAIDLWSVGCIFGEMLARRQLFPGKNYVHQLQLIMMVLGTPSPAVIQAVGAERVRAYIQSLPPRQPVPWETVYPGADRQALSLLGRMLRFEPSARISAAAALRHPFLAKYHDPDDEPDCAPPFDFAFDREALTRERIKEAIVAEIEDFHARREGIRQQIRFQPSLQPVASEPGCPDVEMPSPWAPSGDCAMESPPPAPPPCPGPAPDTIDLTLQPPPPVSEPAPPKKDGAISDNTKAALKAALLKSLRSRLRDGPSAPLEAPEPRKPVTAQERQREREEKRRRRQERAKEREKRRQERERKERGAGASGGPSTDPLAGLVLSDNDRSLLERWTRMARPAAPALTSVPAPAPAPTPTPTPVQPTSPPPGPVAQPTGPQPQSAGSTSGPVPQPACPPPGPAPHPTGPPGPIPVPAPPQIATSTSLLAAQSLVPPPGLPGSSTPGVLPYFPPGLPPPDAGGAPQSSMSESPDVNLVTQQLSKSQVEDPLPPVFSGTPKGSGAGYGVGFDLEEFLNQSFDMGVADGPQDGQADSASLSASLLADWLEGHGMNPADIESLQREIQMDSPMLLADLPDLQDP

| SMILES | Residual activity ([1]; ERK5, 1.0E-06 M) | Residual activity ([1]; ERK5, 1.0E-07 M) | Residual activity, S6K ([2]; assay conc. 1.0E-06 M) | Residual activity, S6K ([2]; assay conc. 1.0E-07 M) | Residual activity ([3]; MYLK3, 1.0E-06 M) | Residual activity ([3]; MYLK3, 1.0E-07 M) | Residual activity, PRKG1 ([4]; assay conc. 1.0E-06 M) | Residual activity, PRKG1 ([4]; assay conc. 1.0E-07 M) | Residual activity ([5]; CAMKK2, 1.0E-06 M) | Residual activity ([5]; CAMKK2, 1.0E-07 M) | Residual activity ([6]; 1.0E-06 M) | Residual activity ([6]; 1.0E-07 M) | Residual activity, TTBK2 ([7]; assay conc. 1.0E-06 M) | Residual activity, TTBK2 ([7]; assay conc. 1.0E-07 M) | Residual activity, RPS6KA4 ([8]; assay conc. 1.0E-06 M) | Residual activity, RPS6KA4 ([8]; assay conc. 1.0E-07 M) | Residual activity ([9]; EPHA2, 1.0E-06 M) | Residual activity ([9]; EPHA2, 1.0E-07 M) |
| --- | --- | --- | --- | --- | --- | --- | --- | --- | --- | --- | --- | --- | --- | --- | --- | --- | --- | --- |
| C#Cc1cc(Nc2ncnc3cc(I)ccc23)ccc1Cl [Compound 41] | 74 % of control | 92 % of control | 123 % of control | 135 % of control | 93 % of control | 104 % of control | 72 % of control | 88 % of control | 71 % of control | 96 % of control | 77 % of control | 86 % of control | 101 % of control | 102 % of control | 93 % of control | 95 % of control | 91 % of control | 90 % of control |
| C#Cc1cc(Nc2ncnc3cc(OC)c(OC)cc23)ccc1Cl [Compound 45] | 85 % of control | 96 % of control | 121 % of control | 122 % of control | 86 % of control | 100 % of control | 101 % of control | 106 % of control | 74 % of control | 79 % of control | 81 % of control | 92 % of control | 95 % of control | 96 % of control | 83 % of control | 95 % of control | 81 % of control | 87 % of control |
